Data on 29 compounds can be found in patent US5972953A, “Brain cell protective agent” (priority 1993, dated 1999).

In one experiment the test system is cultured nerve cells (cerebral cortex). The experiment is described as follows: cells. The experiment is classed as cell-based, Wistar rat. The following applies: Rattus norvegicus, Cerebral cortex neuron, 24 h, read-out: ED50.
Consider `CC(C)CN(C(=O)/C=C/c1cccc(C(F)(F)F)c1)[C@@H]1CC[C@@]2(O)[C@H]3Cc4ccc(O)c5c4[C@@]2(CCN3CC2CC2)[C@H]1O5` [Compound 65, 17-cyclopropylmethyl-3,14β-dihydroxy-4,5α-epoxy-6β-(N-isobutyl-3-trifluoromethylcinnamamido)morphinan], for which the EC50 was 310 nM.

Take `O=C(/C=C/c1cccc(C(F)(F)F)c1)N(CC1CCCCC1)[C@@H]1CC[C@@]2(O)[C@H]3Cc4ccc(O)c5c4[C@@]2(CCN3CC2CC2)[C@H]1O5` [Compound 68, 17-cyclopropylmethyl-3,14β-dihydroxy-4,5α-epoxy-6β-(N-cyclohexylmethyl-3-trifluoromethylcinnamamido)morphinan]: the EC50 was found to be 100 nM. Same read-out and setting: the same measure for `CN(C(=O)/C=C/c1cccc(F)c1)[C@@H]1CC[C@@]2(O)[C@H]3Cc4ccc(O)c5c4[C@@]2(CCN3CC2CC2)[C@H]1O5` [Compound 79, 17-cyclopropylmethyl-3,14β-dihydroxy-4,5α-epoxy-6β-(N-methyl-3-fluorocinnamamido)morphinan]: 12200 nM.

Still in this experiment, the particulars now being: Rattus norvegicus, Cerebral cortex neuron; 10 mM glutamate, 24 hours at 37° C., LDH leakage; read-out: ED50 (the source's name).
Turning to `CC(C)CN(C(=O)CCCCCCCCCCc1ccccc1)[C@@H]1CC[C@@]2(O)[C@H]3Cc4ccc(O)c5c4[C@@]2(CCN3CC2CC2)[C@H]1O5` [Compound 60, 17-cyclopropylmethyl-3,14β-dihydroxy-4,5α-epoxy-6β-(N-isobutyl-11-phenylundecanoamido)morphinan], the EC50 worked out at 90 nM.

Regarding `CC(C)CN(C(=O)CCCCC(=O)c1ccccc1)[C@@H]1CC[C@@]2(O)[C@H]3Cc4ccc(O)c5c4[C@@]2(CCN3CC2CC2)[C@H]1O5` [Compound 61, 17-cyclopropylmethyl-3,14β-dihydroxy-4,5α-epoxy-6β-(N-isobutyl-5-benzoylpentanoamido)morphinan], the EC50 turned out to be 2220 nM. As to `CC(C)CN(C(=O)CCCCC1CCCCC1)[C@@H]1CC[C@@]2(O)[C@H]3Cc4ccc(O)c5c4[C@@]2(CCN3CC2CC2)[C@H]1O5` [Compound 62, 17-cyclopropylmethyl-3,14β-dihydroxy-4,5α-epoxy-6β-(N-isobutyl-5-cyclohexylpentanoamido)morphinan], the EC50 was 140 nM. As for `CCN(C(=O)/C=C/c1cccc(C(F)(F)F)c1)[C@@H]1CC[C@@]2(O)[C@H]3Cc4ccc(O)c5c4[C@@]2(CCN3CC2CC2)[C@H]1O5` [Compound 63, 17-cyclopropylmethyl-3,14β-dihydroxy-4,5α-epoxy-6β-(N-ethyl-3-trifluoromethylcinnamarido)morphinan], the EC50 is 1250 nM. The same measure, in the same setting: the same measure for `CC(C)N(C(=O)/C=C/c1cccc(C(F)(F)F)c1)[C@@H]1CC[C@@]2(O)[C@H]3Cc4ccc(O)c5c4[C@@]2(CCN3CC2CC2)[C@H]1O5` [Compound 64, 17-cyclopropylmethyl-3,14β-dihydroxy-4,5α-epoxy-6β-(N-isopropyl-3-trifluoromethylcinnamamido)morphinan]: 690 nM; for `CCCCN(C(=O)/C=C/c1cccc(C(F)(F)F)c1)[C@@H]1CC[C@@]2(O)[C@H]3Cc4ccc(O)c5c4[C@@]2(CCN3CC2CC2)[C@H]1O5` [Compound 66, 17-cyclopropylmethyl-3,14β-dihydroxy-4,5α-epoxy-6β-(N-butyl-3-trifluoromethylcinnamamido)morphinan]: 330 nM; for `O=C(/C=C/c1cccc(C(F)(F)F)c1)N(CCc1ccccc1)[C@@H]1CC[C@@]2(O)[C@H]3Cc4ccc(O)c5c4[C@@]2(CCN3CC2CC2)[C@H]1O5` [Compound 67, 17-cyclopropylmethyl-3,14β-dihydroxy-4,5α-epoxy-6β-[N-(2-phenethyl)-3-trifluoromethylcinnamamido]morphinan]: 100 nM. The same measure, in the same setting: the same measure for `O=C(/C=C/c1cccc(C(F)(F)F)c1)N(CCCc1ccccc1)[C@@H]1CC[C@@]2(O)[C@H]3Cc4ccc(O)c5c4[C@@]2(CCN3CC2CC2)[C@H]1O5` [Compound 69, 17-cyclopropylmethyl-3,14β-dihydroxy-4,5α-epoxy-6β-[N-(3-phenylpropyl)-3-trifluoromethylcinnamamido]-morphinan]: 160 nM. Still for that read-out and setting: the same measure for `CCCCCN(C(=O)CCCCCc1ccccc1)[C@@H]1CC[C@@]2(O)[C@H]3Cc4ccc(O)c5c4[C@@]2(CCN3CC2CC2)[C@H]1O5` [Compound 70, 17-cyclopropylmethyl-3,14β-dihydroxy-4,5α-epoxy-6β-(N-pentyl-6-phenylhexanoamido)morphinan]: 190 nM. For `O=C(CCCCCc1ccccc1)N(CC1CCCCC1)[C@@H]1CC[C@@]2(O)[C@H]3Cc4ccc(O)c5c4[C@@]2(CCN3CC2CC2)[C@H]1O5` [Compound 71, 17-cyclopropylmethyl-3,14β-dihydroxy-4,5α-epoxy-6β-(N-cyclohexylmethyl-6-phenylhexanoamido)morphinan], the EC50 is 100 nM. On the same count and under the same terms, the same measure for `O=C(CCCCCc1ccccc1)N(CCCc1ccccc1)[C@@H]1CC[C@@]2(O)[C@H]3Cc4ccc(O)c5c4[C@@]2(CCN3CC2CC2)[C@H]1O5` [Compound 72, 17-cyclopropylmethyl-3,14β-dihydroxy-4,5α-epoxy-6β-[N-(3-phenylpropyl)-6-phenylhexanoamido)morphinan]: 110 nM. On the same count and under the same terms, the same measure for `O=C(CCCCCc1ccccc1)N(CCCCc1ccccc1)[C@@H]1CC[C@@]2(O)[C@H]3Cc4ccc(O)c5c4[C@@]2(CCN3CC2CC2)[C@H]1O5` [Compound 73, 17-cyclopropylmethyl-3,14β-dihydroxy-4,5α-epoxy-6β-[N-(4-phenylbutyl)-6-phenylhexanoamido)morphinan]: 140 nM; for `O=C(CCCCCc1ccccc1)N(CC(c1ccccc1)c1ccccc1)[C@@H]1CC[C@@]2(O)[C@H]3Cc4ccc(O)c5c4[C@@]2(CCN3CC2CC2)[C@H]1O5` [Compound 74, 17-cyclopropylmethyl-3,14β-dihydroxy-4,5α-epoxy-6β-[N-(2,2-diphenylethyl)-6-phenylhexanoamido)morphinan]: 220 nM.

With `CCC/C=C/C(=O)N(C)[C@@H]1CC[C@@]2(O)[C@H]3Cc4ccc(O)c5c4[C@@]2(CCN3CC2CC2)[C@H]1O5` [Compound 75, 17-cyclopropylmethyl-3,14β-dihydroxy-4,5α-epoxy-6β-(N-methyl-trans-2-hexenoamido)morphinan], the EC50 was found to be 16500 nM. On the same count and under the same terms, the same measure for `CN(C(=O)/C=C/c1ccccc1)[C@@H]1CC[C@@]2(O)[C@H]3Cc4ccc(O)c5c4[C@@]2(CCN3CC2CC2)[C@H]1O5` [Compound 76, 17-cyclopropylmethyl-3,14β-dihydroxy-4,5α-epoxy-6β-(N-methylcinnamamido)morphinan]: 6790 nM. The same measure, in the same setting: the same measure for `CN(C(=O)CC(=O)c1ccccc1)[C@@H]1CC[C@@]2(O)[C@H]3Cc4ccc(O)c5c4[C@@]2(CCN3CC2CC2)[C@H]1O5` [Compound 80, 17-cyclopropylmethyl-3,14β-dihydroxy-4,5α-epoxy-6β-(N-methylbenzoylacetoamido) morphinan]: 7390 nM; for `CN(C(=O)Cc1ccc2ccccc2c1)[C@@H]1CC[C@@]2(O)[C@H]3Cc4ccc(O)c5c4[C@@]2(CCN3CC2CC2)[C@H]1O5` [Compound 83, 17-cyclopropylmethyl-3,14β-dihydroxy-4,5α-epoxy-6β-(N-methyl-2-naphthylacetoamido)morphinan]: 4690 nM; for `CN(C(=O)Cc1cccc(Cl)c1)[C@@H]1CC[C@@]2(O)[C@H]3Cc4ccc(O)c5c4[C@@]2(CCN3CC2CC2)[C@H]1O5` [Compound 85, 17-cyclopropylmethyl-3,14β-dihydroxy-4,5α-epoxy-6β-(N-methyl-3-chlorophenylacetoamido) morphinan]: 4220 nM.

Regarding `CN(C(=O)Cc1cccc2ccccc12)[C@@H]1CC[C@@]2(O)[C@H]3Cc4ccc(O)c5c4[C@@]2(CCN3CC2CC2)[C@H]1O5` [Compound 86, 17-cyclopropylmethyl-3,14β-dihydroxy-4,5α-epoxy-6β-(N-methyl-1-naphthylacetoamido)morphinan], the EC50 is 7360 nM. For `CN(C(=O)Cc1csc2ccccc12)[C@@H]1CC[C@@]2(O)[C@H]3Cc4ccc(O)c5c4[C@@]2(CCN3CC2CC2)[C@H]1O5` [Compound 87, 17-cyclopropylmethyl-3,14β-dihydroxy-4,5α-epoxy-6β-(N-methyl-3-benzo[b]thienylacetoamrido)morphinan], the EC50 was determined as 2150 nM. The same measure, in the same setting: the same measure for `CN(C(=O)C1c2ccccc2-c2ccccc21)[C@@H]1CC[C@@]2(O)[C@H]3Cc4ccc(O)c5c4[C@@]2(CCN3CC2CC2)[C@H]1O5` [Compound 88, 17-cyclopropylmethyl-3,14β-dihydroxy-4,5α-epoxy-6β-(N-methyl-9-fluorenylamido) morphinan]: 4640 nM; for `CN(C(=O)Cc1c(F)c(F)c(F)c(F)c1F)[C@@H]1CC[C@@]2(O)[C@H]3Cc4ccc(O)c5c4[C@@]2(CCN3CC2CC2)[C@H]1O5` [Compound 89, 17-cyclopropylmethyl-3,14β-dihydroxy-4,5α-epoxy-6β-(N-methyl-2,3,4,5,6-pentafluorophenylacetoamido)morphinan]: 6280 nM.

`CN(C(=O)C#Cc1cccc(C(F)(F)F)c1)[C@@H]1CC[C@@]2(O)[C@H]3Cc4ccc(O)c5c4[C@@]2(CCN3CC2CC2)[C@H]1O5` [Compound 90, 17-Cyclopropylmethyl-3,14β-dihydroxy-4,5α-epoxy-6β-[N-methyl-3-(3-trifluoromethylphenyl)propiolamido]morphinan]: the EC50 came to 4370 nM. `C=CCN1CC[C@]23c4c5ccc(O)c4O[C@H]2[C@H](N(C)C(=O)Cc2ccc(Cl)c(Cl)c2)CC[C@@]3(O)[C@H]1C5` [Compound 93, 17-allyl-3,14β-dihydroxy-4,5α-epoxy-6β-(N-methyl-3,4-dichlorophenylacetoamido)morphinan]: the EC50 amounted to 1500 nM. Same read-out and setting: the same measure for `CN(Cc1ccccc1)[C@H]1CC[C@@]2(O)[C@H]3Cc4ccc(O)c5c4[C@@]2(CCN3CC2CC2)[C@H]1O5` [Compound 95, 17-cyclopropylmethyl-3,14β-dihydroxy-4,5α-epoxy-6α-(N-methylbenzylamino)morphinan]: 560 nM; for `CC(C)CN(CCCCCCc1ccccc1)[C@H]1CC[C@@]2(O)[C@H]3Cc4ccc(O)c5c4[C@@]2(CCN3CC2CC2)[C@H]1O5` [Compound 97, 17-cyclopropylmethyl-3,14β-dihydroxy-4,5α-epoxy-6α-(N-isobutyl-6-phenylhexylamino)morphinan]: 160 nM.
